# Measurements reported in patent publication US8410175B2, “Anticancer effect enhancer” (Nippon Kayaku Kabushiki Kaisha, priority 2004, dated 2013).
# How the values were obtained:
# [1] = tested on: Murine Lewis lung carcinoma (LLC) cells; test: Murine lung cancer model, tumor volume growth; assay type: in vivo; design: dose or concentration left out as unconfirmed; details: LLC s.c. in C57BL6 mice; two weeks
# Description: Tumor volume was calculated as 0.5×{tumor length (mm)}[…]{tumor width (mm)}^2. The […] was calculated by student t-test.
# (§1) Murine Lewis lung carcinoma (LLC) cells, lung adenocarcinoma cells, were obtained from the Tohoku University Cell Resource Center for Biomedical Research and were incubated with DMEM plus 10% fetal bovine serum until cell proliferation was sufficient to perform the experiments. The LLC cells were adjusted to concentrations of 2×10^5 cells/100 μl with phosphate buffer saline (PBS), and were inoculated Six-week-old male C57BL6 mice purchased from Charles River Japan, Inc. (Tokyo, Japan) and Clea Japan, Inc. (Tokyo, Japan) subcutaneously (2×10^5 cells/100 μl/mouse) at the right hypochondrium. Mice were maintained under specific-pathogen-free conditions, and provided with sterile food and water. When transplanted tumors grew to approximately 100 mm^3 in tumor volume, animals were equally divided into four groups (Control group, n=6; C, NO donor group, n=6; N, Chemotherapy group, n=6; CTX, and NO plus chemotherapy group, n=6; N+CTX). Tumor volume was calculated as 0.5×{tumor length (mm)}×{tumor width (mm)}^2. […]
# [2] = tested on: Colon 26 cells, murine colon cancer cells; test: Murine colon cancer model, tumor volume growth; assay type: in vivo; design: dose or concentration left out as unconfirmed; details: colon 26 s.c. in BALB/c mice; two weeks
# Description: Tumor volume was calculated as 0.5×{tumor length (mm)}×{tumor width (mm)}^2. The P value was calculated by student t-test.
# as §1, with “Colon 26” for “Murine Lewis lung carcinoma (LLC)”, “murine colon cancer” for “lung adenocarcinoma”, “RPMI 1640” for “DMEM”, “colon 26” for “LLC”, “female BALB/c” for “male C57BL6”, “subcutanously” for “subcutaneously”
smiles,measurement,setting,value
"O=[N+]([O-])OCC(CO[N+](=O)[O-])O[N+](=O)[O-] [NO donor, nitroglycerin]",murine tumor volume,[1],rapid tumor growth
same,murine tumor volume,[2],rapid tumor growth
